# Assay results: patent EP3442964B1, “NOVEL N-[(PYRIMIDINYLAMINO)PROPANYL]-AND N [(PYRAZINYLAMINO)PROPANYL]ARYLCARBOXAMIDES” (Boehringer Ingelheim International GmbH, priority 2016, dated 2017)
# pIC50: −log10 of the molar value. Like-named read-outs stand apart in the source and are kept apart here.
# Tests used:
# human orexin 2 receptor = target: T1, human orexin 2 receptor (Homo sapiens, UniProt O43614); assay type: cell-based; details: 0.5 nM Orexin A
# T1 sequence (O43614 1-444): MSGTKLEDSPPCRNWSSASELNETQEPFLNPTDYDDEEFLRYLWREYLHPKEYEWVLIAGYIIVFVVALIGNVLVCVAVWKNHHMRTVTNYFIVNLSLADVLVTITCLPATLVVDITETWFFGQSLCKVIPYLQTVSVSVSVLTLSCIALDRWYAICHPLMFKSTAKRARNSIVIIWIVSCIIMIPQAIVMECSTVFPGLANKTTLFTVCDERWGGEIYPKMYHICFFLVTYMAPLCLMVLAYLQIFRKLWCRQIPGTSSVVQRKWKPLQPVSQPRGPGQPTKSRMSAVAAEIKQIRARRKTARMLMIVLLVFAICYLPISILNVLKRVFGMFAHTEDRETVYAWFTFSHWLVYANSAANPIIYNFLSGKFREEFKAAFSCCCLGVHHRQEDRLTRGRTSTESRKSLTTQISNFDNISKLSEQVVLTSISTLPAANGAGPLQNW
# Source text: Chem. Genomics 2009, 3, 22-32.
# [1] = Assay C: metabolic stability in human liver microsomes (human MST); assay type: in vitro ADME; details: pooled human liver microsomes, pH 7.6, 1 µM test compound, 37°C
# Source text: Stability in human liver microsomes refers to the susceptibility of compounds to biotransformation in the context of selecting and/or designing drugs with favorable pharmacokinetic properties. The primary site of metabolism for many drugs is the liver. Human liver microsomes contain the cytochrome P450s (CYPs), and thus represent a model system for studying drug metabolization in vitro. Enhanced stability in human liver microsomes is associated with several advantages, including increased bioavailability and longer half-life, which can enable lower and less frequent dosing of patients. Thus, enhanced stability in human liver microsomes is a favorable characteristic for compounds that are to be used for drugs.
# The metabolic stability of the compounds according to the invention may be investigated as follows: The metabolic degradation of the test compound is assayed at 37°C with pooled human liver microsomes. The final incubation volume of 100 µL per time point contains TRIS buffer pH 7.6 at room temperature (0.1 M), MgCl2 (5 mM), microsomal protein (1 mg/mL) and the test compound at a final concentration of 1 µM. Following a short pre-incubation period at 37°C , the reactions are initiated by addition of beta-nicotinamide adenine dinucleotide phosphate, reduced form (NADPH, 1 mM), and terminated by transferring an aliquot into solvent after different time points. After centrifugation (10000 g, 5 min), an aliquot of the supernatant is assayed by LC-MS/MS for the amount of parent compound. The half-life (t1/2) is determined by the slope of the semi-logarithmic plot of the concentration-time profile.
# human MDR1 P-gp = target: T2, human MDR1 P-gp (Homo sapiens, UniProt P08183); test: Assay D: efflux in MDCK cells transfected with the human MDR1 gene; assay type: in vitro ADME; details: MDCK-MDR1 monolayers, pH 7.4, 37°C, read-out: Assay D:MDCK efflux ratio (BA/AB)
# T2 construct: expressed in transfected cells; host or cells: MDCK (MDCK-MDR1)
# T2 sequence (P08183 whole entry): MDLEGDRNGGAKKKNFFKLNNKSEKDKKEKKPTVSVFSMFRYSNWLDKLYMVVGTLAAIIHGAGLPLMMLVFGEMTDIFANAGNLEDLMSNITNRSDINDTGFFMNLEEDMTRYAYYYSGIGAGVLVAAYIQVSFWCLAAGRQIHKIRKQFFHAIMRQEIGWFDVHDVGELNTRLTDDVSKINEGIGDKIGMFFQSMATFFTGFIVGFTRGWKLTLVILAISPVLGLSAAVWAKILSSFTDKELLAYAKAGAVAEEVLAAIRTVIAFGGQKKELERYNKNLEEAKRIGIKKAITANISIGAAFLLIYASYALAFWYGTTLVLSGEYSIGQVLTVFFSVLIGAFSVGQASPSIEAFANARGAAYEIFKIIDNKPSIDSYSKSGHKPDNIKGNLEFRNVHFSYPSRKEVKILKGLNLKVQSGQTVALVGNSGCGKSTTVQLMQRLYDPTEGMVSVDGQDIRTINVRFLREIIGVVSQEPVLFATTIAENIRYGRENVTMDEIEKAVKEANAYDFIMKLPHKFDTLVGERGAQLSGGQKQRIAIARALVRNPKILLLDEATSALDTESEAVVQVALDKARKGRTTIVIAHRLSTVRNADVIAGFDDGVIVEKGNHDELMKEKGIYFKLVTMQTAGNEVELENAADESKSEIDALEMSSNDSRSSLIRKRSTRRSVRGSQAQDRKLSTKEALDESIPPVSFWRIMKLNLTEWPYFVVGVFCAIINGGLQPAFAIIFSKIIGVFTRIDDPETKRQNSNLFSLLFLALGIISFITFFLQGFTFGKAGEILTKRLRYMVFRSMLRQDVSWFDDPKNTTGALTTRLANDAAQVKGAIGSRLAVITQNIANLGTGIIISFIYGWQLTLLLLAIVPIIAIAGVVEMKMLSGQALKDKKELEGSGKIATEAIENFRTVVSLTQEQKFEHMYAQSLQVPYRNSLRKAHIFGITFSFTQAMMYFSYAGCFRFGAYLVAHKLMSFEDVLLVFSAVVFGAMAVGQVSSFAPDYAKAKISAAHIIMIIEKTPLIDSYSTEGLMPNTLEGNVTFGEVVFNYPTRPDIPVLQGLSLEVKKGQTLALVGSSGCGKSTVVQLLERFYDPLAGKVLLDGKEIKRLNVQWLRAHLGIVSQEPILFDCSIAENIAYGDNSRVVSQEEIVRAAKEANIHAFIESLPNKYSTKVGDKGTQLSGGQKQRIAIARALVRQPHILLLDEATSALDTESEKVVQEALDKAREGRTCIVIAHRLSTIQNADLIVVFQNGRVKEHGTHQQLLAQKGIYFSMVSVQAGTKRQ
# Procedure: The MDCK assay provides information on the potential of a compound to pass the blood brain barrier. Permeability measurements across polarized, confluent MDCK-MDR1 cell monolayers grown on permeable filter supports are used as an in vitro absorption model: apparent permeability coefficients (PE) of the compounds across the MDCK-MDR1 cell monolayers are measured (pH 7.4, 37°C) in apical-to-basal (AB) and basal-to-apical (BA) transport direction. The AB permeability (PEAB) represents drug absorption from the blood into the brain and the BA permeability (PEBA) drug efflux from the brain back into the blood via both, passive permeability as well as active transport mechanisms mediated by efflux and uptake transporters that are expressed on the MDCK-MDR1 cells, predominantly by the overexpressed human MDR1 P-gp. Identical or similar permeabilities in both transport directions indicate passive permeation, vectorial permeability points to additional active transport mechanisms. Higher PEBA than PEAB (PEBA/PEAB > 5) indicates the involvement of active efflux mediated by MDR1 P-gp, which might compromises the goal to achieve sufficient brain exposure. Therefore this assay provides valuable support for selection of compounds applicable for further in vivo testing. High permeability not limited by efflux at the blood brain barrier is a favourable characteristic for compounds that are to be used for drugs acting primarily in the CNS
# Apparent permeability coefficients (PE) of the compounds across the MDCK-MDR1 cell monolayers are measured (pH 7.4, 37°C) in apical-to-basal (AB) and basal-to-apical (BA) transport direction. AB permeability (PEAB) represents drug absorption from the blood into the brain and BA permeability (PEBA) drug efflux from the brain back into the blood via both passive permeability as well as active transport mechanisms mediated by efflux and uptake transporters that are expressed on the MDCK-MDR1 cells, predominantly by the overexpressed human MDR1 P-gp. The compounds are assigned to permeability/absorption classes by comparison of the AB permeabilities with the AB permeabilities of reference compounds with known in vitro permeability and oral absorption in the human. Identical or similar permeabilities in both transport directions indicate passive permeation, vectorial permeability points to additional active transport mechanisms. Higher PEBA than PEAB indicates the involvement of active efflux mediated by MDR1 P-gp. Active transport is concentration- dependently saturable.
# MDCK-MDR1 cells (1-2 x 10e5 cells/1 cm2 area) are seeded on filter inserts (Costar transwell polycarbonate or PET filters, 0.4 µm pore size) and cultured (DMEM) for 7 days. Subsequently, the MDR1 expression is boosted by culturing the cells with 5 mM sodium butyrate in full medium for 2 days. Compounds are dissolved in appropriate solvent (like DMSO, 1 -20 mM stock solutions). Stock solutions are diluted with HTP-4 buffer (128.13 mM NaCl, 5.36 mM KCI, 1 mM MgSO4, 1.8 mM CaCl2, 4.17 mM NaHCO3, 1.19 mM Na2HPO4 x 7H2O, 0.41 mM NaH2PO4xH2O, 15 mM HEPES, 20 mM glucose, 0.25 % BSA, pH 7.4) to prepare the transport solutions (0.1 - 300 µM compound, final DMSO <= 0.5 %). The transport solution (TL) is applied to the apical or basolateral donor side for measuring A-B or B-A permeability (3 filter replicates), respectively. The receiver side contains the same buffer as the donor side. Samples are collected at the start and end of experiment from the donor and at various time intervals for up to 2 hours also from the receiver side for concentration measurement by HPLC-MS/MS or scintillation counting. Sampled receiver volumes are replaced with fresh receiver solution.
# OX2R = target: T3, OX2R (Homo sapiens, UniProt O43614); details: cited from earlier work
# T3 sequence (O43614 1-444): T1 sequence (O43614 1-444)
# [2] = read-out: Assay C: Human MST t1/2
SMILES,Kb (human orexin 2 receptor) [µM],"half-life at 1 µM [1, 2] [h]",efflux ratio (human MDR1 P-gp),half-life at 1 µM ([1]; read-out: Data as determined in Assay C: Human MST t1/2) [h],OX2R pIC50 (OX2R; Table 3 of WO2016/034882),pIC50 (OX2R; corresponds to pIC50 of Table 3 of WO2016/034882)
CCN(C(=O)c1ccccc1-n1nccn1)[C@@H](C)CNc1cnc(C(F)(F)F)cn1 [Example 22],0.00737,> 2,3 to 5,–,–,–
CCN(C(=O)c1ccc(F)cc1-n1nccn1)[C@@H](C)CNc1ncc(C(F)(F)F)cn1 [Example 2],0.0645,0.717,< 3,–,–,–
CCN(C(=O)c1nccnc1-c1ccccc1)[C@@H](C)CNc1ncc(C(F)(F)F)cn1 [Example 21],0.0559,> 2,< 3,–,–,–
"CCN(C(=O)c1nc(C)ccc1-c1ncccn1)[C@@H](C)Cn1nnc(-c2ccc(F)cc2)n1 [Example 69 in WO2013/187466, reference compound]",–,–,–,0.383,–,–
CC[C@@H](CNc1ncc(C(F)(F)F)cn1)N(CC)C(=O)c1nc(C)ccc1-n1nccn1 [Example 73 in WO2016/034882],–,0.183,–,–,< 6.0,< 6.00
CCN(C(=O)c1cncnc1-c1ccccc1)[C@@H](C)CNc1ncc(C(F)(F)F)cn1 [Example 20],0.068,0.717 to 1.67,< 3,–,–,–
CCN(C(=O)c1c(F)cccc1-n1nccn1)[C@@H](C)CNc1ncc(C(F)(F)F)cn1 [Example 7],0.0334,1.27,< 3,–,–,–
CCN(C(=O)c1c(F)cccc1-c1ncccn1)[C@@H](C)CNc1ncc(C(F)(F)F)cn1 [Example 13],0.062,> 2,< 3,–,–,–
CCN(C(=O)c1ccc(F)cc1-c1ncccn1)[C@@H](C)CNc1ncc(C(F)(F)F)cn1 [Example 16],0.0768,1.67,< 3,–,–,–
CCN(C(=O)c1ccc(F)cc1-c1nnc(C)o1)[C@@H](C)CNc1cnc(C(F)(F)F)cn1 [Example 23],0.222,> 2,3 to 5,–,–,–
CCN(C(=O)c1cccc(F)c1-n1nccn1)[C@@H](C)CNc1cnc(C(F)(F)F)cn1 [Example 24],0.01,1.02,3 to 5,–,–,–
CCN(C(=O)c1cc(F)ccc1-n1nccn1)[C@@H](C)CNc1ncc(C(F)(F)F)cn1 [Example 5],0.0353,2,< 3,–,–,–
